In patent US8735423B2, “Bicyclic compounds as α4β2 nicotinic acetylcholine receptor ligands” (priority 2009, dated 2014):
Like-named read-outs stand apart in the source and are kept apart here.

Columns and labels:
Male Wister rats = assay: Object Recognition Task Model; type: in vivo; conditions: rat; for Exploration time mean ± S.E.M, Familiar object / Exploration time mean ± S.E.M, Novel object: choice trial T2
Method: Object Recognition Task Model
The cognition-enhancing properties of compounds of this invention were estimated using a model of animal cognition: the object recognition task model.
Male Wister rats (230-280 grams) obtained from N. I. N. (National Institute of Nutrition, Hyderabad, India) was used as experimental animals. Four animals were housed in each cage. Animals were kept on 20% food deprivation before one day and given water ad libitum throughout the experiment and maintained on a 12 hours light/dark cycle. Also the rats were habituated to individual arenas for 1 hour in the absence of any objects.
One group of 12 rats received vehicle (1 mL/Kg) orally and another set of animals received compound of the formula (I) either orally or i.p., before one hour of the familiar (T1) and choice trial (T2).
The experiment was carried out in a 50×50×50 cm open field made up of acrylic. In the familiarization phase, (T1), the rats were placed individually in the open field for 3 minutes, in which two identical objects (plastic bottles, 12.5 cm height×5.5 cm diameter) covered in yellow masking tape alone (a1 and a2) were positioned in two adjacent corners, 10 cm. from the walls. After 24 hours of the (T1) trial for long-term memory test, the same rats were placed in the same arena as they were placed in T1 trial. Choice phase (T2) rats were allowed to explore the open field for 3 minutes in presence of one familiar object (a3) and one novel object (b) (Amber color glass bottle, 12 cm high and 5 cm in diameter). Familiar objects presented similar textures, colors and sizes. During the T1 and T2 trial, explorations of each object (defined as sniffing, licking, chewing or having moving vibrissae whilst directing the nose towards the object at a distance of less than 1 cm) were recorded separately by stopwatch. Sitting on an object was not regarded as exploratory activity, however, it was rarely observed.
T1 is the total time spent exploring the familiar objects (a1+a2).
T2 is the total time spent exploring the familiar object and novel object (a3+b).
The object recognition test was performed as described by Ennaceur, A., Delacour, J., 1988, A new one-trial test for neurobiological studies of memory in rats—Behavioural data, Behay. Brain Res., 31, 47-59.
Some representative compounds have shown positive effects indicating the increased novel object recognition viz; increased exploration time with novel object and higher discrimination index.

Male Sprague Dawley rats = assay: DRL-72s model of animal depression; type: in vivo; conditions: rat
Method: The antidepressant properties of compounds of this invention were evaluated using a model of animal depression: the DRL-72s model. Male Sprague Dawley rats were used as experimental animals. Rats are trained to lever press for a 4″ access to 0.025 mL of water for each correct response during daily 60 minute sessions. All testing takes place on weekdays only. At the beginning of each session, the house light is illuminated and remains lit until the session ends. No other stimuli are presented during testing. After successful lever press training, rats are then required to respond under a DRL-24 second schedule, where only lever presses that are separated by 24 seconds are reinforced. Upon stable responding on a DRL-24 second schedule (5-10 sessions), rats are trained on a DRL-72 second schedule until responding stabilizes at approximately 15% efficiency (approx 25-35 sessions). Specifically, rats receive a reinforcer for each response that is emitted at least 72 seconds after the previous response (IRT). […] Efficiency is recorded as number of reinforced responses÷total number of responses. After stable baseline responding is achieved, defined as responding for 4 consecutive sessions with no more than 10% variability, animals begin drug testing. Animals receive drug no more than 1× per week.

Male Wistar rats = assay: Acute Food Intake Study (animal model of hyperphagia); type: in vivo; conditions: rat, oral
Method: The appetite suppressing properties of compounds of this invention were studied using an animal model of hyperphagia.
Male Wistar rats (200-210 grams) obtained from Raj Biotech, India were used as experimental animals. The experiment consisted of 6 days. The rats were adapted to the 18 hour fasting and 6 hour feeding pattern. The animals were housed in a group of three in the cages provided with the fasting grills and were fasted for 18 hours. After 18 hour fasting the rats were separated and placed individually in a cage. Weighed amount of feed was provided to rats for 6 hour and the feed intake at 1, 2, 4 and 6 hours was recorded. Again the rats were regrouped and fasted for 18 hour. The above procedure was followed for 5 days. The average cumulative food intake by the rats on the last 3 days was calculated. Animals were randomised on the basis of their last three days food intake.
One group of 8 rats received vehicle (2 mL/Kg) orally and another set of animals received compound of the formula (I) orally. Then the rats were given access to food and the food intake at 1, 2, 4 and 6 hours was recorded. The food intake by the rats treated with test compound was compared with the vehicle treated group by using students ‘t’ test.
Following compound shown positive effects indicating the suppression of food intake i.e. hypophagia like effects.

High Fat Fed Rats = assay: Effect of Test Compounds on Body Weight Gain in High Fat Fed Rats; type: in vivo, rat; conditions: high fat diet fed Sprague Dawley rats, oral for 14 days
Source text: Effect of Test Compounds on Body Weight Gain in High Fat Fed Rats
The body weight gain suppressing properties of compounds of this invention were studied using a animal model of obesity.
Male Sprague Dawley rats (150-160 grams) obtained from Reliance Life Sciences, India were used as experimental animals. Rats were fed with control diet (normal pellet diet) and lard based high fat diet (45% kcal diet) for 7-8 weeks. High fat diet fed animals was randomized according to their body weights. The animals were housed in a group of 3-4 per cage. One group of 10 rats received vehicle (2 mL/Kg) orally and another set of animals received compound of the formula (I) orally for 14 days. Body weight of the animals was recorded for first three consecutive days then it was recorded twice weekly. Weighed amount of food was given to the animals and food intake was recorded every 24 hour for the entire study period.
Following compound shown positive effects indicating the decrease in the body weight gain.

[1] = Rodent Brain Penetration Study; conditions: in vivo, Wistar rat male, P.O, read-out: Steady State Brain Penetration (Cb/Cp)
Method: Rodent Brain Penetration Study
Male Wistar rats (230-280 grams) obtained from NIN (National Institute of Nutrition, Hyderabad, India) was used as an experimental animal. Three animals were housed in each cage. Animals were given water and food ad libitum throughout the experiment, and maintained on a 12 hours light/dark cycle.
NCE compound was dissolved in water and administered orally. At Tmax (0.5, 1.0 and 2.0) animals were sacrificed to collect the plasma and brain tissue and was homogenized. Plasma and Brain was stored frozen at −20° C. until analysis. The concentrations of the NCE compound in plasma and Brain were determined using LC-MS/MS method.
The NCE compounds were quantified in plasma and brain homogenate by validated LC-MS/MS method using solid phase extraction technique. NCE compounds were quantified in the calibration range of 1-500 ng/mL in plasma and brain homogenate. Study samples were analyzed using calibration samples in the batch and quality control samples spread across the batch. Extents of brain-blood ratio were calculated (Cb/Cp).

Row | Structure (SMILES) | Inference (Male Wister rats; 0.1 mg/kg p.o.) | Exploration time mean ± S.E.M, Familiar object (Male Wister rats; 0.1 mg/kg p.o.) [s] | Exploration time mean ± S.E.M, Novel object (Male Wister rats; 0.1 mg/kg p.o.) [s] | Dose mg/kg, p.o. (DRL-72s) (Male Sprague Dawley rats) | Inference (Male Wistar rats) | % Suppression of food intake compared to vehicle (Male Wistar rats; 1 Hour) [%] | % Suppression of food intake compared to vehicle (Male Wistar rats; 2 Hour) [%] | % Suppression of food intake compared to vehicle (Male Wistar rats; 4 Hour) [%] | % Suppression of food intake compared to vehicle (Male Wistar rats; 6 Hour) [%] | % Reduction in body weight gain compared to vehicle (Day 14) (High Fat Fed Rats) [%] | Inference (High Fat Fed Rats) | Kp ([1]; 15 mg/kg) | Inference (Male Wister rats; 1 mg/kg p.o.) | Exploration time mean ± S.E.M, Familiar object (Male Wister rats; 1 mg/kg p.o.) [s] | Exploration time mean ± S.E.M, Novel object (Male Wister rats; 1 mg/kg p.o.) [s] | Kp ([1]; 5 mg/kg)
1 | Cl.c1cncc(OCC2CC3CC3N2)c1 (stereo not shown) [Example 1, 3-(Pyridin-3-yloxymethyl)-2-azabicyclo[3.1.0]hexane hydrochloride] | Active | 7.75 ± 0.84 | 12.65 ± 1.96 | ≦10 mg/kg, p.o. | Active | 32.25 | 25.40 | 23.08 | 15.37 | 3.6 | Active | 3.8 ± 0.289 | – | – | – | –
2 | Cl.Cl.Clc1cncc(OCC2CC3CC3N2)c1 (stereo not shown) [Example 7, 3-(5-Chloropyridin-3-yloxymethyl)-2-azabicyclo[3.1.0]hexane dihydrochloride] | – | – | – | – | – | – | – | – | – | – | – | – | Active | 6.81 ± 1.49 | 16.70 ± 3.19 | 3.79 ± 0.66
